Results: patent publication US10736932B2, “Small molecule Ras inhibitors” (Ohio State Innovation Foundation, priority 2014, dated 2020)
Where “and” joins values, the source holds several entries; their conditions need not be identical. Equal entries are not always repeated. Entries after “also recorded” stand apart in the source; their conditions may differ. Where two headings read alike, the source gives them in different places. Numbered stars: 1 amine (or outer) side, 2 acyl side, 3 side chain; on linkers, the order of the positions; unused ones are H or OH. Bridge positions count the residues as written; N and C are the ends. Square brackets hold non-standard residues; d marks the D form. Peptide text beside a SMILES is read from it. * marks the point of attachment. ξ: configuration not given here. Lys(5-FITC)NH2 = NC(=O)[C@H](CCCCNC(=S)Nc1ccc2c(c1)C(=O)OC21c2ccc(O)cc2Oc2cc(O)ccc21)N*; FITC = O=C1OC2(c3ccc(O)cc3Oc3cc(O)ccc32)c2ccc(NC(=S)*)cc21; dβ3h(hPhe) = O=C(C[C@@H](CCc1ccccc1)N[*:1])[*:2]; Phe(4-F) = N[C@@H](Cc1ccc(F)cc1)C(=O)O; d2Nal = N[C@H](Cc1ccc2ccccc2c1)C(=O)O; Benzoyl(3-Br) = O=C(c1cccc(Br)c1)*; Benzoyl(3-Cl) = O=C(c1cccc(Cl)c1)*; X1 = CC(C)(CO[*:2])C(=O)C(=O)[*:1]; ξ2Nal = NC(Cc1ccc2ccccc2c1)C(=O)O; Tle = CC(C)(C)[C@H](N)C(=O)O; X2 = O=C(C=Cc1ccc(Cl)cc1)*; dNle = CCCC[C@@H](N)C(=O)O; Dap = NC[C@H](N)C(=O)O; ξPip = O=C(O)C1CCCCN1

What was measured:
[1] = biological target: T1, K-Ras / Raf RBD interaction (Homo sapiens, UniProt P01116, G12V); experiment: HTRF assay, inhibition of Ras-Raf RBD interaction; assay type: binding;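 further: HTRF signal read after overnight incubation of the assay plate at 4 °C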
T1 construct: The G12V mutant K-Ras (amino acids 1-185) was recombinantly fused; GST (N, cleaved yes); made in house; host or cells: Escherichia coli BL21
Description: Recombinant HA-tagged K-Ras (no GST, 50 nM), GST-Raf RBD (50 nM each), a monoclonal anti-HA antibody labeled with acceptor d2 (2 μg/mL), a monoclonal anti-GST antibody labeled with donor Tb (0.25 μg/mL) (Cisbio), and increasing concentrations of cyclic peptide (0-20 μM) were mixed inPBS (total volume of 20 μL) in a 384-well plate. The plate was incubated overnight at 4° C. and the HTRF signal was measured on a Molecular Devices Spectramax M5 or a Tecan infinite M1000 Pro plate reader. The data were analyzed by Prism 6.0 from Graphpad Software, Inc. (La Jolla, Calif.) and IC50 values were obtained by fitting the data to dose-response-inhibition curve.

A549 cells [2] = experiment: Cellular uptake of FITC-labeled peptides (live-cell confocal microscopy, FACS); details: for cell permeability relative to earlier peptides: Gln8 replaced with L- or D-arginine
H1299 lung cancer cells = assay type: cell-based; details: for anti-proliferative activity against lung cancer cells (in words): MTT assay
Description: MTT assays (17) were performed with H1299 lung cancer cells. One hundred μL of H1299 cells (0.5×10^5 cells/mL) were seeded in each well of a 96-well culture plate and allowed to grow overnight in Advanced RPMI medium supplemented with 10% fetal bovine serum (FBS) and 1% penicillin-streptomycin. Varying concentrations of cyclic peptide (0-25 μM) were added to the each well and the cells were incubated at 37° C. with 5% CO2 for 72 hours. Ten μL of a MTT stock solution (Roche) was added into each well. The plate was incubated at 37° C. for 4 h. Then 100 μL of SDS-HCl solubilizing buffer was added into each well, and the resulting solution was mixed thoroughly. The plate was incubated at 37° C. overnight. The absorbance of the formazan product was measured at 570 nm using a Molecular Devices Spectramax M5 plate reader. Each experiment was performed in triplicates and the cells without any peptide added were treated as control.

A549 cells [3] = tested on: A549 cells
[4] = inability to cross the cell membrane; cited from earlier work
[5] = tested on: actin filaments in A549 cells; experiment: Actin filament staining (phalloidin-FITC) by confocal microscopy; assay type: cell-based; details: 10 μM, 15 min
Text: The inhibition of Ras affects proliferation and survival of cells. […] These morphological changes are consistent with a collapse of the actin cytoskeleton. The dephosphorylation of cofilin activates the actin filament severing activity of this protein. The severing of actin filaments results in the collapse of the actin cytoskeleton. […] Without actin filaments, cells tend to round up and lose attachment to the substrate.

[6] = tested on: phosphorylation of Akt, Mek and Erk in H1299 cells; experiment: Western blot of Ras signaling (Akt, Mek, Erk phosphorylation) in H1299 cells; assay type: cell-based
Text: (§1) Two well characterized Ras effector pathways are the Raf-Mek-Erk and PI3K-Akt signaling pathways (Karnoub, A. E. et al. (2008) Nat Rev. Mol. Cell Biol. 9:517). To determine whether the cyclic peptides inhibited the intracellular Ras activity, Applicants monitored the phosphorylation levels of Mek, Erk, and Akt in cells before and after treatment with the Ras inhibitors. […] In order to rule out that the observed downregulation of P-Mek, P-Erk and P-Akt is caused by inhibition of EGFR signaling, the effect of Cyclosrasin 9A5 on the phosphorylation of the EGFR was tested by performing an IP/Western Blot experiment (FIG. 3E). Active, signaling EGFR is highly autohophosphorylated.
(§2) In the MTT assay, A549 cells were also found to be more resistant to the Ras inhibitors than other cell lines.

EGFR phosphorylation = experiment: IP/Western blot of EGFR phosphorylation; assay type: cell-based; details: 13 μM
Text: as §1

[7] = tested on: phosphorylation of Akt, Mek and Erk in H1975 cells; experiment: Western blot of Ras signaling in H1975 cells; assay type: cell-based; details: 10 μM, 10 min
Text: as §2
(§3) In H1975 the EGFR is also mutated. Certain mutated EGFR cannot be inhibited with Tarceva® due to the resistance conferring T790M mutation which precludes binding of the drug.

[8] = tested on: phosphorylation of Akt, Mek and Erk in H1650 cells; experiment: Western blot of Ras signaling in H1650 cells; assay type: cell-based; details: 10 μM, 10 min
Text: as §2, §3

[9] = tested on: phosphorylation of Akt, Mek and Erk in A549 cells; experiment: Western blot of Ras signaling in A549 cells; assay type: cell-based; details: 10 μM, 10 min
[10] = biological target: maltose-binding protein-XIAP BIR3 domain fusion (Homo sapiens, UniProt P98170); experiment: FA binding of FITC-9A5 to control protein MBP-XIAP BIR3
K-Ras(G12V) = biological target: T2, K-Ras(G12V) (Homo sapiens, UniProt P01116, G12V); experiment: Fluorescence anisotropy (FA) binding of FITC-labeled cyclic peptides to K-Ras; details: Table 2; FITC-labeled peptide; read-out: Binding affinity KD
T2 construct: The G12V mutant K-Ras (amino acids 1-185) was recombinantly fused; GST (N, cleaved yes); made in house; host or cells: Escherichia coli BL21
Description: The 13 hits were resynthesized, labeled with fluorescein isothiocyanate (FITC), purified by HPLC, and tested for binding to K-Ras by fluorescence anisotropy (FA).
For cyclic peptides derived from single library beads (library screening), K-Ras protein (non-GST fusion, 0-20 μM) was incubated with the TMR-labeled peptide (50 or 100 nM) in 20 μL of the blocking buffer for 2.5 h at 24° C. The FA values were measured on a Molecular Devices Spectramax M5 spectrofluorimeter, with excitation and emission wavelengths at 545 and 585 nm, respectively. Equilibrium dissociation constants (KD) were determined by plotting the FA values as a function of K-Ras concentration and fitting the data to the equation
[formula] where Y is the measured anisotropy at a given K-Ras concentration x; L is the peptide concentration; Qb/Qf is the correction fact for dye-protein interaction; Amax is the maximum anisotropy at saturating K-Ras concentration; and Amin is the minimum anisotropy. FA analyses with resynthesized FITC-labeled peptides were similarly carried out, except that the excitation and emission wavelengths were at 494 and 520 nm, respectively.

[11] = inhibition of Ras-Raf interaction, read-out: HTRF IC50

T1 sequence (P01116 1-185 isoform P01116-2 G12V): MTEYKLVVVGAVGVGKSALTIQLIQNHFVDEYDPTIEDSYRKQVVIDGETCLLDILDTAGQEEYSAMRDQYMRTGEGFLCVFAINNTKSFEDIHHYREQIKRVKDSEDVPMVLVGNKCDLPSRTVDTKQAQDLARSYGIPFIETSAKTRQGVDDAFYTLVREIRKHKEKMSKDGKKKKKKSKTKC
T2 sequence (P01116 1-185 isoform P01116-2 G12V): as above
Chain of maltose-binding protein-XIAP BIR3 domain fusion (P98170 241-356 limits assumed): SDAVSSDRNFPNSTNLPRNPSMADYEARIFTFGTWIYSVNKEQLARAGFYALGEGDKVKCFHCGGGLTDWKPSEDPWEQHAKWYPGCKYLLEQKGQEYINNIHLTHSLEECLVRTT

SMILES: CCCC[C@H]1NC(=O)[C@H](Cc2ccc(F)cc2)NC(=O)[C@H](CCCNC(=N)N)NC(=O)[C@@H](Cc2ccc3ccccc3c2)NC(=O)[C@H](CCCNC(=N)N)NC(=O)[C@H](CCCNC(=N)N)NC(=O)[C@@H](CCCNC(=N)N)NC(=O)[C@@H](C)NC(=O)[C@H]([C@@H](C)O)NC(=O)[C@H](Cc2c[nH]c3ccccc23)NC(=O)[C@H](CCC(N)=O)NC1=O [Cyclorasin 9A6, (Trp-Thr-ala-arg-Arg-Arg-nal-Arg-Fpa-nle-Gln)] (cyclo(WT[dA][dR]RR[d2Nal]R[Phe(4-F)][dNle]Q))
- IC50 [1]: 170 nM
- cell permeability relative to earlier peptides (A549 cells [2]): improved cell permeability

SMILES: CCCC[C@H]1NC(=O)[C@H](CNC(=O)c2cccc(Cl)c2)NC(=O)[C@H](CCCNC(=N)N)NC(=O)[C@@H](Cc2ccc3ccccc3c2)NC(=O)[C@H](CCCNC(=N)N)NC(=O)[C@H](CCCNC(=N)N)NC(=O)[C@H](CCCNC(=N)N)NC(=O)[C@@H](C)NC(=O)[C@H](C(C)(C)C)NC(=O)[C@H](Cc2c[nH]c3ccccc23)NC(=O)[C@H](CCC(N)=O)NC1=O [Cyclorasin 9A44d, (Trp-Tle-ala-Arg-Arg-Arg-nal-Arg-Dap(3-chlorobenzoyl)-nle-Gln)] (cyclo(W[Tle][dA]RRR[d2Nal]R[Dap](Benzoyl(3-Cl))[dNle]Q))
- IC50 (H1299 lung cancer cells; H1299 cells, MTT, 72 hours, read-out: Anti-proliferative Activity IC50): 14000 ± 2000 nM
- IC50 [1]: 49 ± 7 nM

SMILES: C[C@H]1NC(=O)[C@H](CCCNC(=N)N)NC(=O)[C@H](Cc2c[nH]c3ccccc23)NC(=O)[C@H](CCCNC(=N)N)NC(=O)[C@H](Cc2ccc(F)cc2)NC(=O)[C@H](CCCNC(=N)N)NC(=O)[C@@H](Cc2ccc3ccccc3c2)NC(=O)[C@H](CCCNC(=N)N)NC(=O)[C@H](CCCNC(=N)N)NC(=O)[C@H](CCC(N)=O)NC1=O [Cyclorasin 12A, (Arg-Arg-nal-Arg-Fpa-Arg-Trp-Arg-ala-Gln)] (cyclo(RR[d2Nal]R[Phe(4-F)]RWR[dA]Q); ring closure inferred)
- cell permeability (A549 cells [3]): cell permeable
- anti-proliferative activity against lung cancer cells (in words) (H1299 lung cancer cells): weak
- IC50 [1, 11]: 1000 nM

SMILES: CCCC[C@H]1NC(=O)[C@H](Cc2ccc(F)cc2)NC(=O)[C@H](CCCN=C(N)N)NC(=O)C(Cc2ccc3ccccc3c2)NC(=O)[C@H](CCCN=C(N)N)NC(=O)[C@H](CCCN=C(N)N)NC(=O)[C@H](CCC(N)=O)NC(=O)C[C@@H](CCc2ccccc2)NC(=O)C2CCCCN2C(=O)C(=O)C(C)(C)COC1=O (stereo partly shown) [Compound 12] ([ξPip][dβ3h(hPhe)]QRR[ξ2Nal]R[Phe(4-F)][dNle]; linker N-C via X1)
- cellular activity [4]: lacked cellular activity

SMILES: CCCC[C@H]1NC(=O)[C@H](Cc2ccc(F)cc2)NC(=O)[C@H](CCCNC(=N)N)NC(=O)[C@@H](Cc2ccc3ccccc3c2)NC(=O)[C@H](CCCNC(=N)N)NC(=O)[C@H](CCCNC(=N)N)NC(=O)[C@H](CCCNC(=N)N)NC(=O)[C@@H](C)NC(=O)[C@H]([C@@H](C)O)NC(=O)[C@H](Cc2c[nH]c3ccccc23)NC(=O)[C@H](CCC(N)=O)NC1=O [Cyclorasin 9A5, (Trp-Thr-ala-Arg-Arg-Arg-nal-Arg-Fpa-nle-Gln)] (cyclo(WT[dA]RRR[d2Nal]R[Phe(4-F)][dNle]Q))
- actin filaments in treated cells [5]: absent
- basal phosphorylation of Mek and Akt ([6]; H1299 cells unstimulated with EGF, 10 μM for 10 min): inhibited
- Mek, Erk and Akt phosphorylation ([6]; H1299 cells, 10 μM, 10 min): almost completely abolished
- EGF-induced phosphorylation of Akt and Mek ([6]; H1299 cells, 13 μM, 5 min): significant reduction
- phosphorylation level of Erk ([6]; H1299 cells, 13 μM, time course): decreased, but to a lesser extent
- EGF-induced phosphorylation of Akt and Mek ([6]; H1299 cells, 13 μM, ≥10 min): completely abolished
- EGFR phosphorylation level (EGFR phosphorylation): does no affect; also recorded: no effect
- Mek, Erk and Akt phosphorylation [7]: almost completely abolished; also recorded: can be inhibited
- Mek, Erk and Akt phosphorylation [8]: almost completely abolished; also recorded: can be inhibited
- Mek, Erk and Akt phosphorylation [9]: significant Mek and Erk phosphorylation remained
- IC50 [1]: 120 nM
- cell permeability relative to earlier peptides (A549 cells [2]): improved cell permeability

SMILES: CCCC[C@H]1NC(=O)[C@H](Cc2ccc(F)cc2)NC(=O)[C@H](CCCNC(=N)N)NC(=O)[C@@H](Cc2ccc3ccccc3c2)NC(=O)[C@H](CCCCNC(=S)Nc2ccc3c(c2)C(=O)OC32c3ccc(O)cc3Oc3cc(O)ccc32)NC(=O)[C@H](CCCNC(=N)N)NC(=O)[C@H](CCCNC(=N)N)NC(=O)[C@@H](C)NC(=O)[C@H]([C@@H](C)O)NC(=O)[C@H](Cc2c[nH]c3ccccc23)NC(=O)[C@H](CCC(N)=O)NC1=O [FITC-9A5] (cyclo(K(FITC)[d2Nal]R[Phe(4-F)][dNle]QWT[dA]RR))
- Kd [10]: ~30000 nM and 30000 nM
- mean fluorescence intensity relative to FITC-9A54 (FACS) (A549 cells [2]; A549 cells, 10 μM FITC-labeled peptide): ~5 fold
- intracellular fluorescence pattern (confocal microscopy) (A549 cells [2]; A549 cells, 10 μM FITC-labeled peptide, 15 min): intense, defuse fluorescence throughout the cytoplasm

SMILES: CCCC[C@H]1NC(=O)[C@H](Cc2ccc(F)cc2)NC(=O)[C@H](CCCNC(=N)N)NC(=O)[C@@H](Cc2ccc3ccccc3c2)NC(=O)[C@H](CCCNC(=N)N)NC(=O)[C@H](CCCNC(=N)N)NC(=O)[C@H](CCC(=O)N[C@@H](CCCCNC(=S)Nc2ccc3c(c2)C(=O)OC32c3ccc(O)cc3Oc3cc(O)ccc32)C(N)=O)NC(=O)[C@@H](C)NC(=O)[C@H]([C@@H](C)O)NC(=O)[C@H](Cc2c[nH]c3ccccc23)NC(=O)[C@@H](CO)NC1=O [Cyclorasin 9A, (Arg-Arg-nal-Arg-Fpa-nle-ser-Trp-Thr-ala-Gln)] (cyclo(RR[d2Nal]R[Phe(4-F)][dNle][dS]WT[dA]E(Lys(5-FITC)NH2)))
- anti-proliferative activity against lung cancer cells (in words) (H1299 lung cancer cells): weak
- IC50 [1, 11]: 650 ± 110 nM
- cell permeability (A549 cells [2]; A549 cells, 10 μM FITC-labeled peptide, 1.5 h): cell permeable

SMILES: C[C@H]1NC(=O)[C@H](C(C)(C)C)NC(=O)[C@H](Cc2c[nH]c3ccccc23)NC(=O)[C@H](CCC(N)=O)NC(=O)[C@@H](CCCCNC(=O)C=Cc2ccc(Cl)cc2)NC(=O)[C@H](Cc2ccc(F)cc2)NC(=O)[C@H](CCCNC(=N)N)NC(=O)[C@@H](Cc2ccc3ccccc3c2)NC(=O)[C@H](CCCCNC(=S)Nc2ccc3c(c2)C(=O)OC32c3ccc(O)cc3Oc3cc(O)ccc32)NC(=O)[C@H](CCCNC(=N)N)NC(=O)[C@H](CCCNC(=N)N)NC1=O [Cyclorasin 9A34, (Trp-Tle-ala-Arg-Arg-Lys(FITC)-nal-Arg-Fpa-lys(4-chlorocinnamoyl)-Gln)] (cyclo(K(FITC)[d2Nal]R[Phe(4-F)][dK](X2)QW[Tle][dA]RR))
- Kd (K-Ras(G12V)): > 20000 nM

SMILES: C[C@H]1NC(=O)[C@H](C(C)(C)C)NC(=O)[C@H](CNC(=O)c2cccc(Br)c2)NC(=O)[C@H](CCC(N)=O)NC(=O)[C@@H](CCCCN)NC(=O)[C@H](Cc2ccc(F)cc2)NC(=O)[C@H](CCCNC(=N)N)NC(=O)[C@@H](Cc2ccc3ccccc3c2)NC(=O)[C@H](CCCCNC(=S)Nc2ccc3c(c2)C(=O)OC32c3ccc(O)cc3Oc3cc(O)ccc32)NC(=O)[C@H](CCCNC(=N)N)NC(=O)[C@H](CCCNC(=N)N)NC1=O [Cyclorasin 9A30, (Dap(3-bromobenzoyl)-Tle-ala-Arg-Arg-Lys(FITC)-nal-Arg-Fpa-lys-Gln)] (cyclo([Dap](Benzoyl(3-Br))[Tle][dA]RRK(FITC)[d2Nal]R[Phe(4-F)][dK]Q))
- Kd (K-Ras(G12V)): 640 ± 70 nM
